In paper PMC11731258, “The structural basis for high-affinity c-di-GMP binding to the GSPII-B domain of the traffic ATPase PilF from Thermus thermophilus” (The Journal of Biological Chemistry, 2024):
Where two headings read alike, the source gives them in different places.

Experiments:
PilF159-482 = biological target: T1, PilF159-482 (Thermus thermophilus, UniProt Q5SLC9); test: ITC binding to PilF159-482; settings: 20 °C; for Kd: pH 7.5, two-site model
T1 sequence (Q5SLC9 159-482): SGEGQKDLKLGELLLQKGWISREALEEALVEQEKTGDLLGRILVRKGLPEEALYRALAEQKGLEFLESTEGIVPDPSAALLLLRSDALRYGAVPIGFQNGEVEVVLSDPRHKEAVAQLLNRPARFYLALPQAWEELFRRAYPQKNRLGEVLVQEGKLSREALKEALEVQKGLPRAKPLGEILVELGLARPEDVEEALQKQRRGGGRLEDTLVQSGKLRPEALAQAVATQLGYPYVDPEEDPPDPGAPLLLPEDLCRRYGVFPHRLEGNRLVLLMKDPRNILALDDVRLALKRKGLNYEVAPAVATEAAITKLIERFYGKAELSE
Description: (§1) To assess the ligand-binding capabilities of the various PilF constructs, triplicates of ITC measurements were recorded for each construct. The measurements were carried out using a MicroCal ITC200 (Malvern Panalytical). All ITC experiments were conducted at 20 °C with 50 mM Tris-HCl pH 7.5, 200 mM sodium chloride, 1 mM β-mercaptoethanol as the sample buffer. All protein samples were extensively dialyzed against the sample buffer and the buffer used for dialysis was used to dilute protein and c-di-GMP samples in preparation for the ITC measurements. Each measurement was conducted using the following protocol. In total, 39.8 μl c-di-GMP were titrated to 270 μl protein in 20 separate injections in 180 s intervals with a stirring speed of 750 rpm. After an initial delay of 120 s, the first injection of 0.2 μl c-di-GMP with a duration of 0.4 s was followed by 19 injections of 2 μl with a duration of 4 s. During the measurement, the feedback mode was set to high and the reference power to 11 μcal s^−1. To optimize precision of the measurements, protein and c-di-GMP concentrations were adjusted to the binding capabilities of the respective constructs and ranged from 5 to 200 μM for protein and 50 to 2000 μM for c-di-GMP. All thermograms were processed using Origin 7.0 (OriginLab) using a one-site– or two-site–binding model dependent on the number of expected binding events.

PilB2 = biological target: PilB2; design: method as in PMID 27578558, PMID 31868878; settings: cited from earlier work
PilF159-302 L196R = biological target: T2, PilF159-302 L196R (Thermus thermophilus, UniProt Q5SLC9, L196R); test: ITC binding to PilF159-302 L196R; settings: 20 °C
T2 sequence (Q5SLC9 159-302 L196R): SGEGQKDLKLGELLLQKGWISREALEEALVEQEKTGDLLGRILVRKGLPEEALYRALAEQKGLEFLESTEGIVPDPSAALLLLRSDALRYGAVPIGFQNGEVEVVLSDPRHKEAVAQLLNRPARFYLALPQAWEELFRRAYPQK
Description: as §1

PilF159-302 D266A = biological target: T3, PilF159-302 D266A (Thermus thermophilus, UniProt Q5SLC9, D266A); test: ITC binding to PilF159-302 D266A; settings: 20 °C
T3 sequence (Q5SLC9 159-302 D266A): T2 sequence (Q5SLC9 159-302 L196R)
Description: as §1

[1] = biological target: T4, PilF159-221 (lacking the C-terminal subdomain) (Thermus thermophilus, UniProt Q5SLC9); test: ITC binding to PilF159-221
T4 sequence (Q5SLC9 159-221): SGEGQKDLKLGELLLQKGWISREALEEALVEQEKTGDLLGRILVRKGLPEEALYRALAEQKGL
Description: as §1

PilB = biological target: PilB; design: method as in PMID 27578558, PMID 31868878; settings: cited from earlier work
[2] = biological target: T5, PilF1-889 (full-length PilF) (Thermus thermophilus, UniProt Q5SLC9); test: ITC c-di-GMP binding to full-length PilF; settings: 20 °C; for Kd: pH 7.5, two-site model
T5 sequence (Q5SLC9 1-889): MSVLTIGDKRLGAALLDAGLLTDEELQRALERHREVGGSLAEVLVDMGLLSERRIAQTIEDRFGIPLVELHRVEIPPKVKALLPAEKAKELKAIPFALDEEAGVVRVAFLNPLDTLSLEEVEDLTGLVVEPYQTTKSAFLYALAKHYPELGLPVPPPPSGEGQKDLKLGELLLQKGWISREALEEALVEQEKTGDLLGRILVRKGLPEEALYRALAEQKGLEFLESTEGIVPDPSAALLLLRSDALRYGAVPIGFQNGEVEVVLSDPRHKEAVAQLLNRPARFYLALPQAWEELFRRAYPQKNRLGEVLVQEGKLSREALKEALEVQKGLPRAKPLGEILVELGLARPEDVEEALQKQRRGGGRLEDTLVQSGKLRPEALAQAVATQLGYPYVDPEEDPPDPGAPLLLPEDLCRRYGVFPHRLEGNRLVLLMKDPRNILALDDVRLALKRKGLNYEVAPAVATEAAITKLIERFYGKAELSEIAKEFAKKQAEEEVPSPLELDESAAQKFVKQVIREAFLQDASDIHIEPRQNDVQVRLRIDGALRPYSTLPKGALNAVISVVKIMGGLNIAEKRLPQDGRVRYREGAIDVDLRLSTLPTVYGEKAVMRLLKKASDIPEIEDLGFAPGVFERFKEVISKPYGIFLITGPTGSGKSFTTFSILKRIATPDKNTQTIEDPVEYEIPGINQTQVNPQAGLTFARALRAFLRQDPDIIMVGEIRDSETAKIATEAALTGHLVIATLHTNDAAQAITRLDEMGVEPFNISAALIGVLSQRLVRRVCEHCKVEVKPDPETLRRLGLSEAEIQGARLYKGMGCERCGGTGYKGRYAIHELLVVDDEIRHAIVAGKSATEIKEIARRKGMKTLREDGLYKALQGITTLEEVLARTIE
Description: as §1

**Q.** What does the source list for `Nc1nc2c(ncn2[C@@H]2O[C@@H]3COP(=O)(O)O[C@H]4[C@@H](O)[C@H](n5cnc6c(=O)[nH]c(N)nc65)O[C@@H]4COP(=O)(O)O[C@H]3[C@H]2O)c(=O)[nH]1` [c-di-GMP, cyclic dimeric guanosine monophosphate]?
**A.** N, site 1 (PilF159-482; Table S1 site 1): 1 ± 0.1; ΔH, site 1 (PilF159-482; Table S1 site 1): -8.689 ± 0.959 kcal/mol; ΔS, site 1 (PilF159-482; Table S1 site 1): 0.95 ± 3.5 cal/mol/deg; N, site 2 (PilF159-482; Table S1 site 2): 0.7 ± 0.1; ΔH, site 2 (PilF159-482; Table S1 site 2): -11.766 ± 1.182 kcal/mol; ΔS, site 2 (PilF159-482; Table S1 site 2): 2.1 ± 4.7 cal/mol/deg; Kd (PilF159-482; read-out: KD, site 1 (low affinity)): 208 ± 27 nM; Kd (PilF159-482; read-out: KD, site 2 (high affinity)): 1 ± 0.3 nM; Kd (PilB2): 13.5 nM; N (PilF159-302 L196R): 1.23 ± 0.03; ΔH (PilF159-302 L196R): -8.148 ± 0.209 kcal/mol; ΔS (PilF159-302 L196R): 7.1 ± 0.8 cal/mol/deg; Kd (PilF159-302 L196R; pH 7.5): 23 ± 2 nM; N (PilF159-302 D266A): 0.95 ± 0.05; ΔH (PilF159-302 D266A): -9.995 ± 0.161 kcal/mol; ΔS (PilF159-302 D266A): 0.6 ± 0.4 cal/mol/deg; Kd (PilF159-302 D266A; pH 7.5): 27 ± 2 nM; N ([1]; ITC, 20 °C): 1.17 ± 0.02; ΔH ([1]; ITC, 20 °C): -11.453 ± 0.189 kcal/mol; ΔS ([1]; ITC, 20 °C): -5.8 ± 0.6 cal/mol/deg; Kd ([1]; ITC, 20 °C, pH 7.5): 54 ± 3 nM; fold higher KD than PilF159-302 ([1]; PilF159-302 6 nM): 9 fold; Kd (PilB): 53 nM; ΔH, site 1 ([2]; Table S1 site 1): -11.763 ± 0.78 kcal/mol; ΔS, site 1 ([2]; Table S1 site 1): -10.4 ± 2.7 cal/mol/deg; N, site 1 ([2]; Table S1 site 1 (low affinity)): 0.72 ± 0.10; ΔH, site 2 ([2]; Table S1 site 2): -15.683 ± 0.97 kcal/mol; ΔS, site 2 ([2]; Table S1 site 2): -16.5 ± 2.2 cal/mol/deg; N, site 2 ([2]; Table S1 site 2 (high affinity)): 0.59 ± 0.03; Kd ([2]; read-out: KD, high-affinity site (KD1 in text and Fig. 1C; site 2 in Table S1)): 10 ± 5 nM; Kd ([2]; read-out: KD, low-affinity site (KD2 in text and Fig. 1C; site 1 in Table S1)): 324 ± 2 nM
